Key:
[1] = test system: 639-V; assay: cells; parameters: species or system panel of human cancer cell lines; Eurofins OncoPanel proliferation; nuclei count by high-content fluorescence imaging, 10-point dose response; details: Homo sapiens, 639-V, 72 h, cell count, 3 days
Protocol: (§1) OncoPanel cancer cell proliferation assay was performed by Eurofins Panlabs, Inc. (Missouri, USA). Cancer cells were grown in RPMI 1640, 10% FBS, 2 mM L-alanyl-L-glutamine, 1 mM Na pyruvate, or a special medium. Cells were seeded into 384-well plates and incubated in a humidified atmosphere of 5% CO2 at 37°C. Compounds were added the day following cell seeding. At the same time, a time zero untreated cell plate was generated. After a 3-day incubation period, cells were fixed and stained to allow fluorescence imaging of nuclei. Levosimendan was serially diluted in half-log steps from 100 μM and assayed over 10 concentrations with a maximum assay concentration of 0.1% DMSO. Automated fluorescence microscopy was carried out using a Molecular Devices ImageXpress Micro XL high-content imager, and images were collected with a 4X objective. 16-bit TIFF images were acquired and analyzed with MetaXpress 5.1.0.41 software. Cell count EC50 is the test concentration at the curve inflection point (parameter C), or half the effective response. IC50 is the test compound concentration at 50% of the maximum possible response. GI50 is the concentration needed to reduce the observed growth by half (midway between the relative cell count at the curve maximum and at the time of compound addition). Activity area is an estimate of the integrated area above the response curve. Activity area values range from 0–10, where a value of zero indicates no inhibition of proliferation at all concentrations, and a value of 10 indicates complete inhibition of proliferation at all concentrations.

[2] = test system: BeWo; assay: cells; parameters: species or system panel of human cancer cell lines; Eurofins OncoPanel proliferation; nuclei count by high-content fluorescence imaging, 10-point dose response; details: Homo sapiens, BeWo, 72 h, cell count, 3 days
Protocol: as §1

[3] = test system: C32TG; assay: cells; parameters: species or system panel of human cancer cell lines; Eurofins OncoPanel proliferation; nuclei count by high-content fluorescence imaging, 10-point dose response; details: C32TG, 72 h, cell count, 3 days
Protocol: as §1

[4] = test system: HT-1197; assay: cells; parameters: species or system panel of human cancer cell lines; Eurofins OncoPanel proliferation; nuclei count by high-content fluorescence imaging, 10-point dose response; details: Homo sapiens, HT1197, 72 h, cell count, 3 days
Protocol: as §1

[5] = test system: Hs 445; assay: cells; parameters: species or system panel of human cancer cell lines; Eurofins OncoPanel proliferation; nuclei count by high-content fluorescence imaging, 10-point dose response; details: Hs 445, 72 h, cell count, 3 days
Protocol: as §1

[6] = test system: Hs 695T; assay: cells; parameters: species or system panel of human cancer cell lines; Eurofins OncoPanel proliferation; nuclei count by high-content fluorescence imaging, 10-point dose response; details: Homo sapiens, Hs 695T, 72 h, cell count, 3 days
Protocol: as §1

[7] = test system: Hs 934.T; assay: cells; parameters: species or system panel of human cancer cell lines; Eurofins OncoPanel proliferation; nuclei count by high-content fluorescence imaging, 10-point dose response; details: 72 h, cell count, 3 days
Protocol: as §1

[8] = test system: J82; assay: cells; parameters: species or system panel of human cancer cell lines; Eurofins OncoPanel proliferation; nuclei count by high-content fluorescence imaging, 10-point dose response; details: Homo sapiens, J82, 72 h, cell count, 3 days
Protocol: as §1

[9] = test system: JEG-3; assay: cells; parameters: species or system panel of human cancer cell lines; Eurofins OncoPanel proliferation; nuclei count by high-content fluorescence imaging, 10-point dose response; details: Homo sapiens, JEG-3, 72 h, cell count, 3 days
Protocol: as §1

[10] = test system: RPMI 8226; assay: cells; parameters: species or system panel of human cancer cell lines; Eurofins OncoPanel proliferation; nuclei count by high-content fluorescence imaging, 10-point dose response; details: Homo sapiens, RPMI-8226, 72 h, cell count, 3 days
Protocol: as §1

[11] = test system: SW954; assay: cells; parameters: species or system panel of human cancer cell lines; Eurofins OncoPanel proliferation; nuclei count by high-content fluorescence imaging, 10-point dose response; details: Homo sapiens, SW 954, 72 h, cell count, 3 days
Protocol: as §1

[12] = target: T1, MYLK4 (Homo sapiens, UniProt Q86YV6); assay: KinomeScan competition binding assay; parameters: DiscoverX KinomeScan panel kinase; details: 100 μM levosimendan
T1 sequence (Q86YV6 1-388): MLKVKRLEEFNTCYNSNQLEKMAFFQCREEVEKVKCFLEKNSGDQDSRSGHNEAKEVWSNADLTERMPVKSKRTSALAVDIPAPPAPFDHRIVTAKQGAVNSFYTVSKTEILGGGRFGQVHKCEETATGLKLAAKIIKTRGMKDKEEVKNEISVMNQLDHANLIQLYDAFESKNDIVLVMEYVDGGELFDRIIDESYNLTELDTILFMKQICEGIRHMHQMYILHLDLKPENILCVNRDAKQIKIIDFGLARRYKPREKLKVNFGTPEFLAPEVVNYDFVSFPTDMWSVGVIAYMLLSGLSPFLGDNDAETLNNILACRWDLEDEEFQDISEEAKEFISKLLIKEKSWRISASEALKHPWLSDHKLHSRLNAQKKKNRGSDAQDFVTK

[13] = 50% of maximum possible response

Compound `C[C@@H]1CC(=O)NN=C1c1ccc(NN=C(C#N)C#N)cc1` [levosimendan] has an IC50 [1, 13] of 6.97 µM, a GI50 ([1]; corrected for time zero) of 6.51 µM and an EC50 ([1]; curve inflection point) of 5.59 µM. It also gave an IC50 [2, 13] of 37.4 µM, a GI50 ([2]; corrected for time zero) of 33.9 µM and an EC50 ([2]; curve inflection point) of 37.4 µM. For the same compound, the IC50 [3, 13] was 36.9 µM, the GI50 ([3]; corrected for time zero) was 23.4 µM and the EC50 ([3]; curve inflection point) was 36.9 µM. The IC50 [4, 13] was > 100 µM, the GI50 ([4]; corrected for time zero) was 96 µM and the EC50 ([4]; curve inflection point) was > 100 µM. For the same compound, the IC50 [5, 13] was 30.6 µM, the GI50 ([5]; corrected for time zero) was 21.8 µM and the EC50 ([5]; curve inflection point) was 26.3 µM. For the same compound, the IC50 [6, 13] was 44.9 µM, the GI50 ([6]; corrected for time zero) was 15.2 µM and the EC50 ([6]; curve inflection point) was 26.7 µM. The IC50 [7, 13] was > 100 µM, the GI50 ([7]; corrected for time zero) was > 100 µM and the EC50 ([7]; curve inflection point) was > 100 µM. The IC50 [8, 13] was > 100 µM, the GI50 ([8]; corrected for time zero) was > 100 µM and the EC50 ([8]; curve inflection point) was > 100 µM. The IC50 [9, 13] was 30.5 µM, the GI50 ([9]; corrected for time zero) was 25.6 µM and the EC50 ([9]; curve inflection point) was 30.5 µM. It also gave an IC50 [10, 13] of 25.1 µM, a GI50 ([10]; corrected for time zero) of 17.1 µM and an EC50 ([10]; curve inflection point) of 25.1 µM. For the same compound, the IC50 [11, 13] was 22.5 µM, the GI50 ([11]; corrected for time zero) was 20.5 µM and the EC50 ([11]; curve inflection point) was 22 µM. For the same compound, the “percentage control at 100 μM” value [12] was “two have intermediate binding affinities (MYLK4 and CAMK2)”.

— PMC6576746, “Rational discovery of dual-indication multi-target PDE/Kinase inhibitor for precision anti-cancer therapy using structural systems pharmacology” (PLoS Computational Biology, 2019)
